Results taken from US20260297081A1, “COMPOUNDS AND METHODS OF TREATING CANCERS” (Cullgen Inc., priority 2023, published 2026).

Columns and labels:
Format in all cases: cell-based
[1] = tested on: MCF7 cells; assay: Anti-proliferation (viability) of MCF7 cells (Table 7, FIG. 2B); details: Homo sapiens, MCF7, MCF7 cells, 3-6 days, 10-point serial dilution; read-out: GI IC50 in MCF-7
[2] = tested on: T47D cells; assay: Anti-proliferation (viability) of ER+ breast cancer T47D cells, 6 days (Table 7, FIG. 2B); details: Homo sapiens, 144 h; T47D cells, 6 days, 10-point serial dilution; read-out: GI IC50 in T47D
Protocol: To evaluate anti-proliferation activities of heterobifunctional compounds, NSCLC Calu-1 or ER+ breast cancer T47D cells were treated with selected heterobifunctional compounds following a 10-point serial dilution for 3 or 6 days, respectively.
To verify that heterobifunctional compound-mediated degradation is dependent on the binding to CDK4-cyclin D complex, a negative control compound, CPD-143, which is derived from active heterobifunctional compound CPD-10 was designed. CPD-143 bears the same DDB1 ligand and linker as CPD-10 but with a modified warhead to impair the binding of the control compound to CDK4.

[3] = tested on: Calu-1 cells; assay: Anti-proliferation (viability) of NSCLC Calu-1 cells, 3 days (Table 7, FIG. 2B); details: Homo sapiens, 72 h; Calu-1 cells, 3 days, 10-point serial dilution; read-out: GI IC50 in Calu-1
How it was run: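 Viability is read after treatment with compounds titrated over ten serial dilution points, with exposure lasting three days for the NSCLC line and six days for the breast cancer line.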

[4] = target: T1, CDK4 (Homo sapiens, UniProt P11802+Q16531); assay: CDK4 percentage degradation in Calu-1 cells (Table 6); design: Cells that express cyclin D1-3 and CDK4/6 proteins were treated with heterobifunctional compounds; endogenous in cells; host or cells: Calu-1; details: 16 hours; for inhibition at 0.04 µM: 40 nM; for inhibition at 0.2 µM: 200 nM
How it was run: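 Calu-1 cells exposed to heterobifunctional compounds at 40 nM or 200 nM for 16 h. Cyclin D1 and CDK4 levels measured by Western blot of RIPA lysates (BCA-normalised loading), bands quantified by densitometry and expressed as percentage degradation.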
Target sequence in this assay (P11802 2-303 limits assumed): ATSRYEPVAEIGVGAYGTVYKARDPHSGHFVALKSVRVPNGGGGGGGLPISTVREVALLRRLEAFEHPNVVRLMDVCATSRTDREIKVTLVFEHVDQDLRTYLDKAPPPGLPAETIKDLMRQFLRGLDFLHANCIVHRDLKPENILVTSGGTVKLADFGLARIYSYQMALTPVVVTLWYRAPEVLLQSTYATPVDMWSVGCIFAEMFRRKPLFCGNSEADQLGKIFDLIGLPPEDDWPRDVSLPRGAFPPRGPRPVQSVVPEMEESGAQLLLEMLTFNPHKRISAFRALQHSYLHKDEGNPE
Target sequence in this assay (P24385 whole entry partner): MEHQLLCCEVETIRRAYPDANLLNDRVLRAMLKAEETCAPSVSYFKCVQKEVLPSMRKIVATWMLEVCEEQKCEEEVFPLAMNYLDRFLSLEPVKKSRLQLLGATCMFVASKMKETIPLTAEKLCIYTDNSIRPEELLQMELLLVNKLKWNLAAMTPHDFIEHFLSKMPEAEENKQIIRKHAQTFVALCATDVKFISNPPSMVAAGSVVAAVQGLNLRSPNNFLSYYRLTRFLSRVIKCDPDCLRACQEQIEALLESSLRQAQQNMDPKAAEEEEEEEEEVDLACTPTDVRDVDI
Target sequence in this assay (Q16531 2-1140 limits assumed): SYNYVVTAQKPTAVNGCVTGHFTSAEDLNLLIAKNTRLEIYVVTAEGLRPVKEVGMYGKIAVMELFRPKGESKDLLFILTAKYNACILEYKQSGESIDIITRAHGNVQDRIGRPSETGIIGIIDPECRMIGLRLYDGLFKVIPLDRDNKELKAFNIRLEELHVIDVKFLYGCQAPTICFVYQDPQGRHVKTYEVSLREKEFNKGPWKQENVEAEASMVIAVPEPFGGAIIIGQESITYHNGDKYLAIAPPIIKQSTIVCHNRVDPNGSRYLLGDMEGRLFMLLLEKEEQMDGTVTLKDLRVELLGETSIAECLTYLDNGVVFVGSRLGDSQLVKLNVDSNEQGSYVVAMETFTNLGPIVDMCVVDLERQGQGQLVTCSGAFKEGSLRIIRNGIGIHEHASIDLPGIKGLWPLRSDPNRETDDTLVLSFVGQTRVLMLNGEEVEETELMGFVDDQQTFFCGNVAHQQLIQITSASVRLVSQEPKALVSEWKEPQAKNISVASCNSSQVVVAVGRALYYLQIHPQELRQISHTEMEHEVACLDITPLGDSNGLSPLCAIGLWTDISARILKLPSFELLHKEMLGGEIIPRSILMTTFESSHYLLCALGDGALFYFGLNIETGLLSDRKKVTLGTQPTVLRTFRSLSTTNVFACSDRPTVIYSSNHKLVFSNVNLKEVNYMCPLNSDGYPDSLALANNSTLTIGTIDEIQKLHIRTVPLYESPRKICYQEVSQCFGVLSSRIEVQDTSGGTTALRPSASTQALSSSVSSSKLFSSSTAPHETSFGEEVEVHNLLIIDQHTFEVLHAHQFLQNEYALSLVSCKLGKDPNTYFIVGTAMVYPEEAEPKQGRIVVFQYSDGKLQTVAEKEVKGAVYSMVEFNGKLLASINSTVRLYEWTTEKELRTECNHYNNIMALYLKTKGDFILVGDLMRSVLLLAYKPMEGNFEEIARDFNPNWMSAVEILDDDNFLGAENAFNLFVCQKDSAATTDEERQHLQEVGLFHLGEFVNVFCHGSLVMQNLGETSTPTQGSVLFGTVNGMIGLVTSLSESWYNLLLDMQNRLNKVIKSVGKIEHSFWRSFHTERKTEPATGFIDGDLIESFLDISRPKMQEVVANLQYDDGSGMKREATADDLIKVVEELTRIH

[5] = target: T1, CDK4; assay: HiBiT detection of HiBiT-tagged CDK4 protein level in MCF7 cells, 16 hours (Table 8); design: expressed in transfected cells; host or cells: MCF7; details: MCF7 cells stably expressing HiBiT tagged target proteins
Protocol: HiBiT detection system quantitatively measures total amounts of HiBiT-tagged proteins using a luminescent based method. MCF7 cells stably expressing HiBiT tagged target proteins were treated with heterobifunctional compounds at indicated concentrations for 16 hours, then lysed with Nano-Glo HiBiT Lytic detection reagents.
Target sequence in this assay (P11802 whole entry): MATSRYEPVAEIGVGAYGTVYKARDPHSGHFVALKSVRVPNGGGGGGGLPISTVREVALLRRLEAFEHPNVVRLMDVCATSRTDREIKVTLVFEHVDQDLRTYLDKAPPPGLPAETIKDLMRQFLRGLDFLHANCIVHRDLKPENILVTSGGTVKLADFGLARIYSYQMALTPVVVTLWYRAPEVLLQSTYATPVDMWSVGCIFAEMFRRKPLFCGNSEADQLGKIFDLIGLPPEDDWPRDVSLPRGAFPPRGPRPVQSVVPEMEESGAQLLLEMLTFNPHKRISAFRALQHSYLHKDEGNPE
Target sequence in this assay (P24385 whole entry partner): as the sequence (P24385 whole entry partner) above
Target sequence in this assay (Q16531 2-1140 limits assumed): as the sequence (Q16531 2-1140 limits assumed) above

SMILES | IC50 [1] [nM] | IC50 [2] [nM] | IC50 [3] [nM] | inhibition at 0.04 µM [4] [%] | inhibition at 0.2 µM [4] [%] | activity at 0.01 µM ([5]; 10 nM, read-out: % CDK4 Relative Level (10 nM)) [%] | activity at 0.1 µM ([5]; 100 nM, read-out: % CDK4 Relative Level (100 nM)) [%]
CNc1ccc(C(=O)Nc2ccc(N(C)C)nn2)c(NCCCCCNC(=O)CN2CCN(c3ccc(Nc4ncc5c(C)c(C(C)=O)c(=O)n(C6CCCC6)c5n4)nc3)CC2)n1 [CPD-5, 2-((5-(2-(4-(6-((6-acetyl-8-cyclopentyl-5-methyl-7-oxo-7,8-dihydropyrido[2,3-d]pyrimidin-2-yl)amino)pyridin-3-yl)piperazin-1-yl)acetamido)pentyl)amino)-N-(6-(dimethylamino)pyridazin-3-yl)-6-(methylamino)nicotinamide] | < 50 | ≤ 50 | ≤ 10 | 50 to 80 |  |  | 
CC(=O)c1c(C)c2cnc(Nc3ccc(N4CCN(CC(=O)NCCCCCNc5nc(C#N)ccc5C(=O)Nc5ccc(N(C)C)nn5)CC4)cn3)nc2n(C2CCCC2)c1=O [CPD-28, 2-((5-(2-(4-(6-((6-Acetyl-8-cyclopentyl-5-methyl-7-oxo-7,8-dihydropyrido[2,3-d]pyrimidin-2-yl)amino)pyridin-3-yl)piperazin-1-yl)acetamido)pentyl)amino)-6-cyano-N-(6-(dimethylamino)pyridazin-3-yl)nicotinamide] |  | ≤ 50 | 10 to 50 | 50 to 80 | 50 to 80 |  | 
CNc1ccc(C(=O)Nc2ccc(N(C)C)nn2)c(NC(C)CCCCNC(=O)CN2CCN(c3ccc(Nc4ncc5c(C)c(C(C)=O)c(=O)n(C6CCCC6)c5n4)nc3)CC2)n1 (stereo not shown) [CPD-29, 2-((6-(2-(4-(6-((6-Acetyl-8-cyclopentyl-5-methyl-7-oxo-7,8-dihydropyrido[2,3-d]pyrimidin-2-yl)amino)pyridin-3-yl)piperazin-1-yl)acetamido)hexan-2-yl)amino)-N-(6-(dimethylamino)pyridazin-3-yl)-6-(methylamino)nicotinamide] |  | 50 to 100 | 10 to 50 | 50 to 80 | > 80 |  | 
CNc1ccc(C(=O)Nc2ccc(C)c(C3CC3)n2)c(NC2CC3(CC(NC(=O)CN4CCN(c5ccc(Nc6ncc7c(C)c(C(C)=O)c(=O)n(C8CCCC8)c7n6)nc5)CC4)C3)C2)n1 (stereo not shown) [CPD-57, 2-((6-(2-(4-(6-((6-Acetyl-8-cyclopentyl-5-methyl-7-oxo-7,8-dihydropyrido[2,3-d]pyrimidin-2-yl)amino)pyridin-3-yl)piperazin-1-yl)acetamido)spiro[3.3]heptan-2-yl)amino)-N-(6-cyclopropyl-5-methylpyridin-2-yl)-6-(methylamino)nicotinamide] |  | 50 to 100 | 10 to 50 | 30 to 50 | > 80 |  | 
CNc1ccc(C(=O)Nc2ccc(N(C)C)nn2)c(NC2CC(CNC(=O)CCN3CCN(c4ccc(Nc5ncc6c(C)c(C(C)=O)c(=O)n(C7CCCC7)c6n5)nc4)CC3)C2)n1 (stereo not shown) [CPD-80, 2-((3-((3-(4-(6-((6-Acetyl-8-cyclopentyl-5-methyl-7-oxo-7,8-dihydropyrido[2,3-d]pyrimidin-2-yl)amino)pyridin-3-yl)piperazin-1-yl)propanamido)methyl)cyclobutyl)amino)-N-(6-(dimethylamino)pyridazin-3-yl)-6-(methylamino)nicotinamide] |  | ≤ 50 | ≤ 10 | 50 to 80 | 50 to 80 |  | 
CC(=O)c1c(C)c2cnc(Nc3ccc(N4CCN(CC(=O)NC5CC6(C5)CC(Nc5nc(NC(C)C)ccc5C(=O)Nc5cccc(C7CC7)n5)C6)CC4)cn3)nc2n(C2CCCC2)c1=O (stereo not shown) [CPD-139, 2-((6-(2-(4-(6-((6-Acetyl-8-cyclopentyl-5-methyl-7-oxo-7,8-dihydropyrido[2,3-d]pyrimidin-2-yl)amino)pyridin-3-yl)piperazin-1-yl)acetamido)spiro[3.3]heptan-2-yl)amino)-N-(6-cyclopropylpyridin-2-yl)-6-(isopropylamino)nicotinamide] |  | ≤ 50 | ≤ 10 | 50 to 80 | 50 to 80 |  | 

Further lines, results first:

IC50 [1] [nM] | IC50 [2] [nM] | IC50 [3] [nM] | inhibition at 0.04 µM [4] [%] | inhibition at 0.2 µM [4] [%] | activity at 0.01 µM ([5]; 10 nM, read-out: % CDK4 Relative Level (10 nM)) [%] | activity at 0.1 µM ([5]; 100 nM, read-out: % CDK4 Relative Level (100 nM)) [%] | SMILES
< 50 | ≤ 50 | ≤ 10 | 50 to 80 | > 80 |  |  | CC(=O)c1c(C)c2cnc(Nc3ccc(N4CCN(CC(=O)NCCCCCCCNc5nc(C)ccc5C(=O)Nc5ccc(N(C)C)nn5)CC4)cn3)nc2n(C2CCCC2)c1=O [CPD-8, 2-((7-(2-(4-(6-((6-acetyl-8-cyclopentyl-5-methyl-7-oxo-7,8-dihydropyrido[2,3-d]pyrimidin-2-yl)amino)pyridin-3-yl)piperazin-1-yl)acetamido)heptyl)amino)-N-(6-(dimethylamino)pyridazin-3-yl)-6-methylnicotinamide]
 | 50 to 100 | 10 to 50 | 50 to 80 | 50 to 80 |  |  | CNc1ccc(C(=O)Nc2ccc(N(C)C)nn2)c(NC2CC(CCNC(=O)N3CCN(c4ccc(Nc5ncc6c(C)c(C(C)=O)c(=O)n(C7CCCC7)c6n5)nc4)CC3)C2)n1 (stereo not shown) [CPD-35, 4-(6-((6-Acetyl-8-cyclopentyl-5-methyl-7-oxo-7,8-dihydropyrido[2,3-d]pyrimidin-2-yl)amino)pyridin-3-yl)-N-(2-(3-((3-((6-(dimethylamino)pyridazin-3-yl)carbamoyl)-6-(methylamino)pyridin-2-yl)amino)cyclobutyl)ethyl)piperazine-1-carboxamide]
 | ≥ 100 | 10 to 50 | 50 to 80 | 50 to 80 |  |  | CNc1ccc(C(=O)Nc2ccc(N(C)C)nn2)c(NCCCCNC(=O)CCN2CCN(c3ccc(Nc4ncc5c(C)c(C(C)=O)c(=O)n(C6CCCC6)c5n4)nc3)CC2)n1 [CPD-37, 2-((4-(3-(4-(6-((6-acetyl-8-cyclopentyl-5-methyl-7-oxo-7,8-dihydropyrido[2,3-d]pyrimidin-2-yl)amino)pyridin-3-yl)piperazin-1-yl)propanamido)butyl)amino)-N-(6-(dimethylamino)pyridazin-3-yl)-6-(methylamino)nicotinamide]
 | ≤ 50 | 10 to 50 | 30 to 50 | 50 to 80 |  |  | CNc1ccc(C(=O)Nc2cccc(C)n2)c(NC2CC3(CC(NC(=O)CN4CCN(c5ccc(Nc6ncc7c(C)c(C(C)=O)c(=O)n(C8CCCC8)c7n6)nc5)CC4)C3)C2)n1 (stereo not shown) [CPD-75, 2-((6-(2-(4-(6-((6-Acetyl-8-cyclopentyl-5-methyl-7-oxo-7,8-dihydropyrido[2,3-d]pyrimidin-2-yl)amino)pyridin-3-yl)piperazin-1-yl)acetamido)spiro[3.3]heptan-2-yl)amino)-6-(methylamino)-N-(6-methylpyridin-2-yl)nicotinamide]
 | 50 to 100 | 10 to 50 | 30 to 50 | 30 to 50 |  |  | CNc1ccc(C(=O)Nc2ccc(N(C)C)nn2)c(NC2CC3(CC(CNC(=O)N4CCN(c5ccc(Nc6ncc7c(C)c(C(C)=O)c(=O)n(C8CCCC8)c7n6)nc5)CC4)C3)C2)n1 (stereo not shown) [CPD-81, 4-(6-((6-Acetyl-8-cyclopentyl-5-methyl-7-oxo-7,8-dihydropyrido[2,3-d]pyrimidin-2-yl)amino)pyridin-3-yl)-N-((6-((3-((6-(dimethylamino)pyridazin-3-yl)carbamoyl)-6-(methylamino)pyridin-2-yl)amino)spiro[3.3]heptan-2-yl)methyl)piperazine-1-carboxamide]
 | 50 to 100 | ≤ 10 | < 30 | 50 to 80 |  |  | CC(=O)c1c(C)c2cnc(Nc3ccc(N4CCN(CC(=O)NCCCCCNc5nc(NC(C)(C)C)ccc5C(=O)Nc5ccc(N(C)C)nn5)CC4)cn3)nc2n(C2CCCC2)c1=O [CPD-85, 2-((5-(2-(4-(6-((6-Acetyl-8-cyclopentyl-5-methyl-7-oxo-7,8-dihydropyrido[2,3-d]pyrimidin-2-yl)amino)pyridin-3-yl)piperazin-1-yl)acetamido)pentyl)amino)-6-(tert-butylamino)-N-(6-(dimethylamino)pyridazin-3-yl)nicotinamide]
< 50 | ≥ 100 |  | < 30 | < 30 | > 85 | 55 to 85 | CC(=O)c1c(C)c2cnc(Nc3ccc(N4CCN(CC(=O)NC5CC6(C5)CC(Nc5nc(NC(C)C)ccc5C(=O)Nc5cc(C)n(C)n5)C6)CC4)cn3)nc2n(C2CCCC2)c1=O (stereo not shown) [CPD-253, 2-((6-(2-(4-(6-((6-acetyl-8-cyclopentyl-5-methyl-7-oxo-7,8-dihydropyrido[2,3-d]pyrimidin-2-yl)amino)pyridin-3-yl)piperazin-1-yl)acetamido)spiro[3.3]heptan-2-yl)amino)-N-(1,5-dimethyl-1H-pyrazol-3-yl)-6-(isopropylamino)nicotinamide]
